Reference: ChEMBL document CHEMBL4715696, “In vitro synergistic anticancer activity of the combination of T-type calcium channel blocker and chemotherapeutic agent in A549 cells” (Bioorg Med Chem Lett, 2016)

Experiments:
A549 [1] = experiment: Decrease in cell cycle associated protein expression in human A549 cells assessed as fold change in cyclin D1 expression at 10 uM after 6 hrs by Western blot analysis (reference value: 0.68); format: functional
A549 [2] = experiment: Decrease in cell cycle associated protein expression in human A549 cells assessed as fold change in cyclin E expression at 10 uM after 12 hrs by Western blot analysis (reference value: 0.55); format: functional
A549 [3] = experiment: Induction of cell cycle arrest in human A549 cells assessed as accumulation at G1 phase at 2.5 uM after 48 hrs by flow cytometric analysis (Rvb =65.5%); format: functional
A549 [4] = experiment: Decrease in cell cycle associated protein expression in human A549 cells assessed as fold change in CDK4 expression at 10 uM after 24 hrs by Western blot analysis (reference value: 0.87); format: functional
A549 [5] = experiment: Decrease in cell cycle associated protein expression in human A549 cells assessed as fold change in cyclin D3 expression at 10 uM after 24 hrs by Western blot analysis (reference value: 1.09); format: functional
CYP3A4 = CYP3A4 (Homo sapiens, UniProt P08684); experiment: Inhibition of human CYP3A4 assessed as residual activity at 10 uM measured after 15 mins relative to control; format: ADME; conditions: read-out: Activity
Sequence of CYP3A4 (P08684 whole entry): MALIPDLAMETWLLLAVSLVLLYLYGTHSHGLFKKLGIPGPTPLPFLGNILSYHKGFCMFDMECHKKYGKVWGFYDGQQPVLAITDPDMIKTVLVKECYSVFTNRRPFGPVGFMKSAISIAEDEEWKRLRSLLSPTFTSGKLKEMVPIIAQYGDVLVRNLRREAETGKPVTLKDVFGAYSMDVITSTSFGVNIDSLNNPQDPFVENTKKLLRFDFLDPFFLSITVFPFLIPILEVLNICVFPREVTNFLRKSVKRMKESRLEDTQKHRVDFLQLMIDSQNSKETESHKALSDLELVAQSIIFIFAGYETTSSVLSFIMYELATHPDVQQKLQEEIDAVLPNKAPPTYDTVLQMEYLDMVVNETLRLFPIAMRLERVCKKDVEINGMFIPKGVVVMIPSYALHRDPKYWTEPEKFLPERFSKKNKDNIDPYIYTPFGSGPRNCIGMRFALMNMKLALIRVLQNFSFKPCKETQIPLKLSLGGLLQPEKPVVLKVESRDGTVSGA

A549 [6] = experiment: Induction of cell cycle arrest in human A549 cells assessed as accumulation at sub G1 phase at 5 uM after 24 hrs by flow cytometric analysis (reference value: 7.8%); format: functional
A549 [7] = experiment: Induction of cell cycle arrest in human A549 cells assessed as increase in cell accumulation at G1 phase after 48 hrs by flow cytometric analysis; format: functional, cell-based; conditions: dose 2.5-10 µM
A549 [8] = experiment: Potentiation of cisplatin-induced cell cycle arrest in human A549 cells assessed as accumulation at G2/M phase at 10 uM in presence of cisplatin after 48 hrs by flow cytometric analysis (Rvb =52.9%); format: functional
A549 [9] = experiment: Decrease in cell cycle associated protein expression in human A549 cells assessed as reduction in CDK2 expression after 48 hrs by Western blot analysis; format: functional, cell-based; conditions: dose 2.5-10 µM
A549 [10] = experiment: Decrease in cell cycle associated protein expression in human A549 cells assessed as reduction in cyclin D3 expression after 48 hrs by Western blot analysis; format: functional, cell-based; conditions: dose 2.5-10 µM
A549 [11] = experiment: Potentiation of etoposide-induced apoptosis in human A549 cells assessed as early apoptotic cells at 10 uM incubated for 48 hrs by AnnexinV-FITC/propidium iodide staining based flow cytometry (reference value: 19.1%); format: functional
A549 [12] = experiment: Decrease in cell cycle associated protein expression in human A549 cells assessed as fold change in cyclin E expression at 10 uM after 6 hrs by Western blot analysis (reference value: 0.55); format: functional
[13] = Upregulation of p27KIP1 protein expression in human A549 cells assessed as fold change in expression at 10 uM after 36 hrs by Western blot analysis (reference value: 0.83); format: functional
A549 [14] = experiment: Induction of cell cycle arrest in human A549 cells assessed as accumulation at G2/M phase at 10 uM after 48 hrs by flow cytometric analysis (reference value: 22.1%); format: functional
A549 [15] = experiment: Decrease in cell cycle associated protein expression in human A549 cells assessed as reduction in CDK2 expression at 10 uM by Western blot analysis; format: functional, cell-based; conditions: time 6-48 hrs, TDE = time-dependent effect
A549 [16] = experiment: Decrease in cell cycle associated protein expression in human A549 cells assessed as reduction in CDK4 expression at 10 uM by Western blot analysis; format: functional, cell-based; conditions: time 6-48 hrs, TDE = time-dependent effect
A549 [17] = experiment: Decrease in cell cycle associated protein expression in human A549 cells assessed as reduction in cyclin D2 expression after 48 hrs by Western blot analysis; format: functional, cell-based; conditions: dose 2.5-10 µM
A549 [18] = experiment: Decrease in cell cycle associated protein expression in human A549 cells assessed as fold change in cyclin D2 expression at 5 uM after 48 hrs by Western blot analysis (reference value: 0.46); format: functional
A549 [19] = experiment: Induction of cell cycle arrest in human A549 cells assessed as accumulation at G2/M phase at 5 uM after 48 hrs by flow cytometric analysis (reference value: 22.1 to 25.4 %); format: functional
A549 [20] = experiment: Decrease in cell cycle associated protein expression in human A549 cells assessed as fold change in CDK2 expression at 10 uM after 48 hrs by Western blot analysis (reference value: 0.48 to 0.79); format: functional
A549 [21] = experiment: Decrease in cell cycle associated protein expression in human A549 cells assessed as reduction in CDK6 expression at 10 uM by Western blot analysis; format: functional, cell-based; conditions: time 6-48 hrs, TDE = time-dependent effect
[22] = Protein binding in human plasma at 10 uM after 4 hrs; format: ADME, cell-free; conditions: read-out: PPB (converted)
A549 [23] = experiment: Induction of cell cycle arrest in human A549 cells assessed as decrease in cell accumulation at S phase after 48 hrs by flow cytometric analysis; format: functional, cell-based; conditions: dose 2.5-10 µM
A549 [24] = experiment: Potentiation of etoposide-induced cell cycle arrest in human A549 cells assessed as accumulation at G1 phase at 5 uM in presence of etoposide after 48 hrs by flow cytometric analysis (reference value: 36%); format: functional
A549 [25] = experiment: Potentiation of cisplatin-induced cell cycle arrest in human A549 cells assessed as accumulation at S phase at 10 uM in presence of cisplatin after 48 hrs by flow cytometric analysis (Rvb =15.8%); format: functional
[26] = Upregulation of p27KIP1 protein expression in human A549 cells assessed as fold change in expression at 10 uM after 12 hrs by Western blot analysis (reference value: 0.83); format: functional
A549 [27] = experiment: Decrease in cell cycle associated protein expression in human A549 cells assessed as fold change in CDK2 expression at 10 uM after 12 hrs by Western blot analysis (reference value: 0.79); format: functional
[28] = Metabolic stability in rat plasma assessed as parent compound remaining at 10 uM measured after 2 hrs; format: ADME, cell-free; conditions: read-out: Stabilty
A549 [29] = experiment: Induction of cell cycle arrest in human A549 cells assessed as accumulation at G1 phase at 5 uM after 24 hrs by flow cytometric analysis (reference value: 53.1%); format: functional
A549 [30] = experiment: Cytotoxicity against human A549 cells assessed as reduction in cell viability by MTT assay; format: functional, cell-based
[31] = Metabolic stability in human plasma assessed as parent compound remaining at 10 uM measured after 2 hrs; format: ADME, cell-free; conditions: read-out: Stabilty
[32] = Upregulation of p27KIP1 protein expression in human A549 cells assessed as fold change in expression at 10 uM after 6 hrs by Western blot analysis (reference value: 0.83); format: functional
A549 [33] = experiment: Potentiation of etoposide-induced cell cycle arrest in human A549 cells assessed as accumulation at G2/M phase at 5 uM in presence of etoposide after 48 hrs by flow cytometric analysis (Rvb =18.9%); format: functional
A549 [34] = experiment: Potentiation of cisplatin-induced cell cycle arrest in human A549 cells assessed as accumulation at G1 phase at 2.5 uM in presence of cisplatin after 48 hrs by flow cytometric analysis (reference value: 14.4%); format: functional
A549 [35] = experiment: Decrease in cell cycle associated protein expression in human A549 cells assessed as fold change in cyclin E expression at 10 uM after 24 hrs by Western blot analysis (reference value: 0.55); format: functional
A549 [36] = experiment: Induction of cell cycle arrest in human A549 cells assessed as accumulation at S phase at 5 uM after 48 hrs by flow cytometric analysis (reference value: 10.4 to 12%); format: functional

With CN(C)C(=O)NCCCN(C)C1=Nc2ccccc2C(CC(=O)NCc2ccc(F)cc2)N1c1ccc(C2CCCCC2)cc1 (configuration not stated) the “fold change (FC)” value (A549 [1]) was 0.47, the “fold change (FC)” value (A549 [2]) was 0.13 and the Activity (A549 [3]) was 69.3%. The “fold change (FC)” value (A549 [4]) was 0.59, the “fold change (FC)” value (A549 [5]) was 0.51 and the activity at 0.25 h, 10 µM (CYP3A4) was 36.9%. The Activity (A549 [6]) was 4.7%, the Activity (A549 [7]) was “Dose-dependent effect” and the Activity (A549 [8]) was 9.4%. For the same compound, the Activity (A549 [9]) was “Dose-dependent effect”, the Activity (A549 [10]) was “Dose-dependent effect” and the Activity (A549 [11]) was 49.1%. The “fold change (FC)” value (A549 [12]) was 0.53, the “fold change (FC)” value [13] was 1.52 and the Activity (A549 [14]) was 10.9%. For the same compound, the Activity (A549 [15]) was “Tde”, the Activity (A549 [16]) was “Tde” and the Activity (A549 [17]) was “Dose-dependent effect”. For the same compound, the “fold change (FC)” value (A549 [18]) was 0.52, the Activity (A549 [19]) was 14.3% and the “fold change (FC)” value (A549 [20]) was 0.26. The Activity (A549 [21]) was “Tde”, the fraction unbound at 4 h, 10 µM [22] was under 0.01 and the Activity (A549 [23]) was “Dose-dependent effect”. The Activity (A549 [24]) was 35.6%, the Activity (A549 [25]) was 6.1% and the “fold change (FC)” value [26] was 0.65. For the same compound, the “fold change (FC)” value (A549 [27]) was 0.62, the remaining at 2 h, 10 µM [28] was 24.8% and the Activity (A549 [29]) was 63.6%. For the same compound, the IC50 (A549 [30]) was 7.3 µM, the remaining at 2 h, 10 µM [31] was 57.6% and the “fold change (FC)” value [32] was 0.3. The Activity (A549 [33]) was 13.4%, the Activity (A549 [34]) was 19.2% and the “fold change (FC)” value (A549 [35]) was 0.08. It also gave an Activity (A549 [36]) of 8.3%.
